Measurements published in ChEMBL document CHEMBL1201862, “PubChem BioAssay data set” (2004).
Activity calls are given as the source filed them.

What was measured:
[1] = Luminescence Cell-Based Dose Response HTS to Identify Inhibitors of 5'UTR Stem-Loop Driven Prion Protein mRNA Translation in H4 Neuroglioblastoma Cells. [Related pubchem assays: 1827 (Project Summary), 1813 (Primary HTS)]; assay type: functional
[2] = blockade of melanocortin 4 receptor signaling – cell-based, plate reader, cherry pick, counter-screen for LGR2 antagonist project, dose response (AID 743444); assay type: functional;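 further: transfected HEK 293 cells stimulated with alpha-MSH peptide; potency of inhibitors of the alpha-MSH evoked signal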
[3] = biological target: T1, Nuclear receptor subfamily 0 group B member 1 (Homo sapiens, UniProt P51843); assay type: functional, cell-based;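 further: HEK293T cells transfected with SF-1 and DAX-1 plus StAR promoter luciferase reporter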
T1 sequence (P51843 whole entry): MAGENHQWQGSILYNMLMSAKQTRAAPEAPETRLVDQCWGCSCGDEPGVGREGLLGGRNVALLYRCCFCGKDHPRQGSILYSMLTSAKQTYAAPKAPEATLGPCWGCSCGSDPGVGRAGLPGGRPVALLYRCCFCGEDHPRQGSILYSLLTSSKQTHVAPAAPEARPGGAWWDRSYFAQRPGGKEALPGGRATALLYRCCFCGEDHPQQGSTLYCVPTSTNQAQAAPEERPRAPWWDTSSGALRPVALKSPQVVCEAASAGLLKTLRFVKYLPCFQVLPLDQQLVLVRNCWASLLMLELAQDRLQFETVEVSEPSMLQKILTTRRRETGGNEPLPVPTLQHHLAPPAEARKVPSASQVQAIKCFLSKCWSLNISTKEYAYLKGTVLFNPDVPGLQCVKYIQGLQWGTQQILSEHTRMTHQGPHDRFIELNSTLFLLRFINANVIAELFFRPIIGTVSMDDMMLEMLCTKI

cells [4] = assay type: functional, cell-based
[5] = blockers of bursicon-stimulated LGR2 cAMP reporter – cell-based, HEK293, CRE-luciferase reporter, cherry pick, set 2, dose response (AID 743343); assay type: functional;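 further: transfected cells were stimulated with diluted bursicon conditioned medium after compound addition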
INS1 = assay: INS-1E survival protection against cytokine death – cell-based, luminescence, retest, dose response (AID 449756); assay type: functional; details: Rattus norvegicus;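 further: cell death triggered by IL-1 beta plus TNF-alpha plus IFN-gamma mixture; protective hits raise ATP signal compared with cytokine alone wells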
cells [6] = assay type: functional, cell-based; details: HEK-CNG
Galanin receptor type 3 = Galanin receptor type 3 (Homo sapiens, UniProt O60755); assay: Fluorescence-based cell-based primary high throughput dose response assay to identify antagonists of the Galanin Receptor 3 (GalR3).; assay type: functional
[7] = HEK-293T viability loss after treatment – luminescence, T-cell screen hits, cytotoxicity control for TCR NF-kB inhibitor project, dose response (AID 489026); assay type: functional, cell-based;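 further: cells exposed to compound about 14 hours before the viability readout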
Cytochrome P450 2D6 = Cytochrome P450 2D6 (Homo sapiens, UniProt P10635);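 further: CYP2D6 member of a cytochrome P450 panel assay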
Cytochrome P450 3A4 = Cytochrome P450 3A4 (Homo sapiens, UniProt P08684);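 further: CYP3A4 tested as one member of a cytochrome P450 panel screen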
[8] = THP-1 cell cytotoxicity, dose response, cytotoxicity control for non-replicating M. tuberculosis project (AID 489025); assay type: functional
cells [9] = assay type: functional
[10] = viability loss in HepG2 hepatoma cells – cell-based, ATP luminescence, cherry-pick, activator set 2, cytotoxicity control, dose response (AID 1053143); assay type: functional
[11] = Vero E6 cell cytotoxicity, dose response, cytotoxicity control for non-replicating M. tuberculosis project, secondary assay (AID 492998); assay type: functional, VeroE6; details: Vero C1008
[12] = HepG2 cell cytotoxicity, dose response, cytotoxicity control for non-replicating M. tuberculosis project (AID 489018); assay type: functional; details: Mycobacterium tuberculosis
[13] = biological target: SWI/SNF-related matrix-associated actin-dependent regulator of chromatin subfamily A member 2 (Homo sapiens, UniProt P51531); assay: Luminescence-based cell-based high throughput dose response assay to identify activators of the function of SWI/SNF related, matrix associated, actin dependent regulator of chromatin, subfamily a, member 2 (SMARCA2, BRM).; assay type: functional
[14] = NIH3T3 cell viability loss – ATP luminescence, mouse fibroblasts, counter-screen, dose response (AID 2010); assay type: functional, cell-based;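 further: cells exposed to compound for about 90 hours before reading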
[15] = Trypanosoma cruzi growth suppression in host cells – NIH3T3 host cells, beta-gal luminescence, confirmation (AID 2044); assay type: functional, cell-based;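 further: intracellular parasites grown in NIH/3T3 mouse fibroblasts as host cells; luminescent beta-galactosidase reporter signal from transgenic T. cruzi replicating inside host cells; inhibitors lower the luminescence signal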
[16] = Counterscreen for activators of the function of SWI/SNF related, matrix associated, actin dependent regulator of chromatin, subfamily a, member 2 (SMARCA2, BRM): Luminescence-based cell-based high throughput dose response assay to identify non-selective compounds using the VP16 reporter assay.; assay type: functional
Major prion protein = Major prion protein (Homo sapiens, UniProt P04156); assay type: functional, cell-based
cells [17] = assay: cells
[18] = toxicity toward HepG2 liver cells – cell-based, plate reader, cherry-pick, antagonist series, cytotoxicity control, dose response (AID 743416); assay type: functional
[19] = viability loss in HEK293 cells – cell-based, plate reader, cherry-picked samples, cytotoxicity control, dose response (AID 743446); assay type: functional
[20] = loss of viability in HepG2 cells – cell-based, CellTiter-Glo, cherry-picked, cytotoxicity control for Shn3 inhibitor project, dose response (AID 624134); assay type: functional
[21] = reduction of Shn3 3'UTR-driven luciferase in osteoblasts – cell-based, Clone20 osteoblasts, firefly luciferase, cherry-picked, dose response (AID 624132); assay type: functional;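 further: firefly luciferase luminescence from reporter carrying the Shn3 3'UTR in osteoblasts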
[22] = non-specific 3'UTR reporter inhibition in Clone20-Shn3RL – cell-based, Renilla luciferase, cherry-picked, counter-screen for Shn3 inhibitor project, dose response (AID 624133); assay type: functional

In the case of O=C(c1cc(-c2ccc(Cl)cc2Cl)on1)N1CCOCC1, the EC50 [1] is reported as > 120 µM (not active), the AC50 [2] is reported as 7.28 µM (active) and the IC50 [3] is reported as > 67.5 µM (inactive). The IC50 (cells [4]) was > 67.5 µM (inactive) and the AC50 [5] was 7.17 µM (active).
For CCc1c(C)nc2ncnn2c1NCCc1ccc(OC)cc1, the AC50 (INS1) was 5.39 µM (active), the EC50 (cells [6]) was > 29.9 µM (inactive) and the IC50 (Galanin receptor type 3) was 3.2 µM (active). For the same molecule, the IC50 [7] was > 80 µM (inactive), the AC50 (Cytochrome P450 2D6) was 12.6 µM (inconclusive) and the AC50 (Cytochrome P450 3A4) was 25.1 µM (inconclusive).
With Cc1cc(NCc2ccccn2)n2ncc(-c3ccccc3)c2n1 the CC50 [8] was 6.66 µM (active), the IC50 (cells [9]) was 1.4 µM (active) and the AC50 [10] was 26 µM (active). For the same molecule, the CC50 [11] was 11.8 µM (active) and the CC50 [12] was 4.11 µM (active).
In the case of Cc1cc(NCCN2CCOCC2)c2ccc3ccccc3c2n1, the EC50 [13] is reported as 25.3 µM (inactive), the EC50 [14] is reported as > 60 µM (not active) and the EC50 [15] is reported as 949 nM (active). For the same molecule, the EC50 [16] was > 91.2 µM (inactive).
In the case of N=C(N)NS(=O)(=O)c1ccc(NC(=S)NC(=O)c2sc3ccccc3c2Cl)cc1, the IC50 (Major prion protein) is reported as 5.54 µM (active) and the IC50 (cells [17]) is reported as > 138 µM (inactive).
With c1ccc(-n2nnnc2Sc2ncnc3sc4c(c23)CCCC4)cc1 the AC50 [18] was > 52 µM (inactive), the AC50 [2] was 5.73 µM (active) and the AC50 [19] was 42.3 µM (active). For the same molecule, the AC50 [5] was 5.02 µM (active).
With Cn1nc(C(C)(C)C)cc1C(=O)NCc1ccc2c(c1)OCO2 the AC50 [20] was 2.31 µM (active), the AC50 (INS1) was 3.31 µM (active) and the EC50 (cells [6]) was > 29.9 µM (inactive). The IC50 (Galanin receptor type 3) was 1.83 µM (active), the AC50 [21] was 1.17 µM (active) and the AC50 [22] was 1.02 µM (active).
For CCc1cc2c(=O)c(-c3ccc4c(c3)OCO4)coc2c(CN(C)C)c1O, the IC50 (Major prion protein) was 2.07 µM (active) and the IC50 (cells [17]) was > 138 µM (inactive).
